Source: US9642789B2, “Methods for generating new hair follicles, treating baldness, and hair removal” (THE TRUSTEES OF THE UNIVERSITY OF PENNSYLVANIA, priority 2005, dated 2017)
“Also recorded” adds a separate entry of the source.

Molecular target: T1, EGF receptor (Mus musculus, UniProt Q01279)
T1 construct: from tissue; host or cells: healing skin wound of live mice
Assay: EDIHN after single injection of EGF receptor inhibitor into wound
Type: in vivo, mice
Conditions: 150 μM in 10 μL, single injection 11 days after 1 cm^2 incisional wounding; K17 and AP staining
Experimental: To determine the effect of administration of EGF receptor inhibitors on DIHN, the inhibitor AG1478 (150 μM in 10 μL volume) was administered as a single injection 11 days after incisional wounding (1 cm^2) to the middle of the wound near the skin surface. […] Left panel: epidermis stained for K17, with three large hair follicles next to each other. Right panel: dermis stained for AP with large coalescing dermal papilla areas.

T1 sequence (Q01279 25-1210): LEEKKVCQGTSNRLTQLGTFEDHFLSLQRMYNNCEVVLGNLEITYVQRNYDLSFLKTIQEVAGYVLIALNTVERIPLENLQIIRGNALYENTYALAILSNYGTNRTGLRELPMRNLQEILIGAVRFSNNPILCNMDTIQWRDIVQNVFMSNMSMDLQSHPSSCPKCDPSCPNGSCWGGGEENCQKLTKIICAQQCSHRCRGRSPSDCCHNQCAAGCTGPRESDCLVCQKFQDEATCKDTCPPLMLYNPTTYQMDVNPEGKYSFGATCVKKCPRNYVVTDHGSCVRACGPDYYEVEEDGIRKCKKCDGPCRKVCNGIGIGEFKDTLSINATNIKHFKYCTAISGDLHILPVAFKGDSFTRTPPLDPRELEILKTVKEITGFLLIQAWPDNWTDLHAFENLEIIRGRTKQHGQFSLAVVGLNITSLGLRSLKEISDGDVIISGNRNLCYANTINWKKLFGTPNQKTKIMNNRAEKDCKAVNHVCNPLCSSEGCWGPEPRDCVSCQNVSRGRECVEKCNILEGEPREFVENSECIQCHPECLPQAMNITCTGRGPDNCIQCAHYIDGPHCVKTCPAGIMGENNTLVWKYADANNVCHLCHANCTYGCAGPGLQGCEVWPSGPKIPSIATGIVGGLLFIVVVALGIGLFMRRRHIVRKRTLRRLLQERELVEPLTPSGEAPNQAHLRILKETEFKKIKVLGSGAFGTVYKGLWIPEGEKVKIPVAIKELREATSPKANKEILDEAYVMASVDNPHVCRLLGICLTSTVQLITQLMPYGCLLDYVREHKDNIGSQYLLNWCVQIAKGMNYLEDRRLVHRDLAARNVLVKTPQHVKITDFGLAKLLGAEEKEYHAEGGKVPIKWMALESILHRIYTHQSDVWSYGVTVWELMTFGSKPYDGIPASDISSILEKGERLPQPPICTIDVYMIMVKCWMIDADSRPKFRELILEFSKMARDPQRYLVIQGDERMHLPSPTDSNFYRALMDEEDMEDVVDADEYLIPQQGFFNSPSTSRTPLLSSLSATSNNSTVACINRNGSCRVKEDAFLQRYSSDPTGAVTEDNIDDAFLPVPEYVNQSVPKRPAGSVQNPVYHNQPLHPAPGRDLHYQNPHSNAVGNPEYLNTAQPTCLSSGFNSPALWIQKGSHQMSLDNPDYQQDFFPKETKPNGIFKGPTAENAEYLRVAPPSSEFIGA

COc1cc2ncnc(Nc3cccc(Cl)c3)c2cc1OC [AG1478]
number and size of hair follicles generated compared with control mice wounded only: more and larger hair follicles; also recorded: more and larger HF
